Assay results taken from ChEMBL document CHEMBL4834445, “Discovery of a new class of JMJD6 inhibitors and structure-activity relationship study” (Bioorg Med Chem Lett, 2021).
Calls of active or inactive are those of the source. No cut-off for these calls is given here.

What was measured:
[1] = biological target: T1, Bifunctional arginine demethylase and lysyl-hydroxylase JMJD6 (Homo sapiens, UniProt Q6NYC1); test: Inhibition of JMJD6 (unknown origin) by Succinate-Glo assay
[2] = biological target: T1, Bifunctional arginine demethylase and lysyl-hydroxylase JMJD6; test: Inhibition of JMJD6 (unknown origin)
[3] = biological target: T1, Bifunctional arginine demethylase and lysyl-hydroxylase JMJD6; test: Inhibition of JMJD6 (unknown origin) at 100 uM by Succinate-Glo assay
[4] = biological target: T2, Bifunctional peptidase and (3S)-lysyl hydroxylase JMJD7 (Homo sapiens, UniProt P0C870); test: Inhibition of JMJD7 (unknown origin) by Succinate-Glo assay
T2 sequence (P0C870 whole entry): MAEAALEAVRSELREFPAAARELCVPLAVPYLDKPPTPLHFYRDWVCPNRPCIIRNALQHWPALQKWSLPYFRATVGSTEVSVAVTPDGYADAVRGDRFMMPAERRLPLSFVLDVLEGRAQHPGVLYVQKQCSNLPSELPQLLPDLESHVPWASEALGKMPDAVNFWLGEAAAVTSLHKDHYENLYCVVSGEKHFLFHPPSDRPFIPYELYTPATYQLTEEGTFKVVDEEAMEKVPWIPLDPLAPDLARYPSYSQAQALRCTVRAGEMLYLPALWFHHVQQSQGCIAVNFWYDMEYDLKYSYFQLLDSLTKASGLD

[5] = biological target: T2, Bifunctional peptidase and (3S)-lysyl hydroxylase JMJD7; test: Binding affinity to JMJD7 (unknown origin) by differential scanning fluorimetry
[6] = biological target: T3, Lysine-specific demethylase 4D (Homo sapiens) (UniProt Q6B0I6); test: Binding affinity to KDM4D (unknown origin) by differential scanning fluorimetry
T3 sequence (whole entry): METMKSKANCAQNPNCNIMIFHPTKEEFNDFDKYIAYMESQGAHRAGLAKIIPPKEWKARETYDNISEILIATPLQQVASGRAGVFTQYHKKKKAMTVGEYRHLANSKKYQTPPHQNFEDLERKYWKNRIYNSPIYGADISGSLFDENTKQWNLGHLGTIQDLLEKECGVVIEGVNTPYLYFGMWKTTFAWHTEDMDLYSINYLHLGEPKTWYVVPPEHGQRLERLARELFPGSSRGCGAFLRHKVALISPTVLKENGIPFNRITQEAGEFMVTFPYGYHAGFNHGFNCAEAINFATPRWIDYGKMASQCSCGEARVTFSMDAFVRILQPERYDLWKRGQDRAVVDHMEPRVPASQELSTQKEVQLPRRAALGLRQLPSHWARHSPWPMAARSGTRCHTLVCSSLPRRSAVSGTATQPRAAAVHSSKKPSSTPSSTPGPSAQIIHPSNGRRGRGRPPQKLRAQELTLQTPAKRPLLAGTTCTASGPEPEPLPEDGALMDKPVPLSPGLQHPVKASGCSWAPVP

[7] = biological target: T1, Bifunctional arginine demethylase and lysyl-hydroxylase JMJD6; test: Binding affinity to JMJD6 in human HeLa cells assessed as inhibition of temperature-dependent protein degradation by CETSA; format: cell-based
RNA demethylase ALKBH5 [8] = biological target: T4, RNA demethylase ALKBH5 (Homo sapiens, UniProt Q6P6C2); test: Inhibition of ALKBH5 (unknown origin) by Succinate-Glo assay
Target sequence in this assay (Q6P6C2 whole entry): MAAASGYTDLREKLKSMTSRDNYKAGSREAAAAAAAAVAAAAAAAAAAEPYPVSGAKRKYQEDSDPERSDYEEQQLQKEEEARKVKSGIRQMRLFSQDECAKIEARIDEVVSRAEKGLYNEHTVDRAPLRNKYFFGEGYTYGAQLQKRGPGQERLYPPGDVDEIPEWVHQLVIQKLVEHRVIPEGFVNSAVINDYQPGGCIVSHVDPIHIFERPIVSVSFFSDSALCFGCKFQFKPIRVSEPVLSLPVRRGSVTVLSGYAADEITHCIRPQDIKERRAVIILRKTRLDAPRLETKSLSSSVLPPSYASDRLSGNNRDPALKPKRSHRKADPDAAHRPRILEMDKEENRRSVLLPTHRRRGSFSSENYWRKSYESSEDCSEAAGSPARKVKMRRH

[9] = biological target: T5, Lysine-specific demethylase 5A (Homo sapiens, UniProt P29375); test: Inhibition of KDM5A (unknown origin) by AlphalLISA assay
T5 sequence (P29375 whole entry): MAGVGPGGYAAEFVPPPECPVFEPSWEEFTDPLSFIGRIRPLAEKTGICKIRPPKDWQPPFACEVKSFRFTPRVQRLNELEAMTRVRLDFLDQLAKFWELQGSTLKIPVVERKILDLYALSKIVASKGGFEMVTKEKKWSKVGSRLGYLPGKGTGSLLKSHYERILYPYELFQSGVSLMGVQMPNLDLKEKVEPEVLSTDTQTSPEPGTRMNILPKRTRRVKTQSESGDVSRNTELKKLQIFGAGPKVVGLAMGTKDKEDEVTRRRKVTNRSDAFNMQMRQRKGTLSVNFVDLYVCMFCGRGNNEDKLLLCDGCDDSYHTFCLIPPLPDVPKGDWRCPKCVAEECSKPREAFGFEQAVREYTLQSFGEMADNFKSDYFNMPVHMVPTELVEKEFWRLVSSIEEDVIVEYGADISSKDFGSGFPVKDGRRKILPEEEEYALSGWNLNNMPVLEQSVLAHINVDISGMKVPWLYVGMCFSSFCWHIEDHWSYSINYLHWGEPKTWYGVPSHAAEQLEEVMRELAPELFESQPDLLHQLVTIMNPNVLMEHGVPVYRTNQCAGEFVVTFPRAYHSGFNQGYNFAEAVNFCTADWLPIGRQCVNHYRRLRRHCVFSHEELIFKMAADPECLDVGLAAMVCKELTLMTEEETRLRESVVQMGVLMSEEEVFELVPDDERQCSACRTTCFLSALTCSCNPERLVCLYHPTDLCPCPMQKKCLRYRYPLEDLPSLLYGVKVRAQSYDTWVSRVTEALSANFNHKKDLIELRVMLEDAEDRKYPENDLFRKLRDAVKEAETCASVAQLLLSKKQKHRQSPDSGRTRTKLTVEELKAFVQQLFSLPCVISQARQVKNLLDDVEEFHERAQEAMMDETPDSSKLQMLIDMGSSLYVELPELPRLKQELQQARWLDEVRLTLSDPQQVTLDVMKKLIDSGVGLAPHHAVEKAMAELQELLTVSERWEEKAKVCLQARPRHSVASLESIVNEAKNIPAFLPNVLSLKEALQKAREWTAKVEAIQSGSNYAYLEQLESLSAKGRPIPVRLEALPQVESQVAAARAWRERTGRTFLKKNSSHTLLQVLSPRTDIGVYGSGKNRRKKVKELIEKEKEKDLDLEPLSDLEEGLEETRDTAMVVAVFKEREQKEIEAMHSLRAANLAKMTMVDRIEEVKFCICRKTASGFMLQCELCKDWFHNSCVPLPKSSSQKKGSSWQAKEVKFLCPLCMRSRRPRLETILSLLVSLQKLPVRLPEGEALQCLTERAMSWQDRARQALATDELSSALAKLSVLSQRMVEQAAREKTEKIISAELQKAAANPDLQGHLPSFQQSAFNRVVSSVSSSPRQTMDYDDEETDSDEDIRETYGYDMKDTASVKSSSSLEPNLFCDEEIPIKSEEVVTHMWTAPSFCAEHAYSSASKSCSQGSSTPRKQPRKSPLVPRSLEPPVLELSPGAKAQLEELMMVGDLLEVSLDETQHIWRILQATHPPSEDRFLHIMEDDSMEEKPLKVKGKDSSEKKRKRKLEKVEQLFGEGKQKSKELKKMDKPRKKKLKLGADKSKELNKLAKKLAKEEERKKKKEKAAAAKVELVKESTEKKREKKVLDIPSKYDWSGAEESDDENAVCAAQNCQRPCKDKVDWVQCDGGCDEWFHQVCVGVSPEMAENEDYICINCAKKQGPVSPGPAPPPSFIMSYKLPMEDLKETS

[10] = biological target: T6, Lysine-specific demethylase 3B (Homo sapiens, UniProt Q7LBC6); test: Inhibition of KDM3B (unknown origin) by Succinate-Glo assay
T6 sequence (Q7LBC6 whole entry): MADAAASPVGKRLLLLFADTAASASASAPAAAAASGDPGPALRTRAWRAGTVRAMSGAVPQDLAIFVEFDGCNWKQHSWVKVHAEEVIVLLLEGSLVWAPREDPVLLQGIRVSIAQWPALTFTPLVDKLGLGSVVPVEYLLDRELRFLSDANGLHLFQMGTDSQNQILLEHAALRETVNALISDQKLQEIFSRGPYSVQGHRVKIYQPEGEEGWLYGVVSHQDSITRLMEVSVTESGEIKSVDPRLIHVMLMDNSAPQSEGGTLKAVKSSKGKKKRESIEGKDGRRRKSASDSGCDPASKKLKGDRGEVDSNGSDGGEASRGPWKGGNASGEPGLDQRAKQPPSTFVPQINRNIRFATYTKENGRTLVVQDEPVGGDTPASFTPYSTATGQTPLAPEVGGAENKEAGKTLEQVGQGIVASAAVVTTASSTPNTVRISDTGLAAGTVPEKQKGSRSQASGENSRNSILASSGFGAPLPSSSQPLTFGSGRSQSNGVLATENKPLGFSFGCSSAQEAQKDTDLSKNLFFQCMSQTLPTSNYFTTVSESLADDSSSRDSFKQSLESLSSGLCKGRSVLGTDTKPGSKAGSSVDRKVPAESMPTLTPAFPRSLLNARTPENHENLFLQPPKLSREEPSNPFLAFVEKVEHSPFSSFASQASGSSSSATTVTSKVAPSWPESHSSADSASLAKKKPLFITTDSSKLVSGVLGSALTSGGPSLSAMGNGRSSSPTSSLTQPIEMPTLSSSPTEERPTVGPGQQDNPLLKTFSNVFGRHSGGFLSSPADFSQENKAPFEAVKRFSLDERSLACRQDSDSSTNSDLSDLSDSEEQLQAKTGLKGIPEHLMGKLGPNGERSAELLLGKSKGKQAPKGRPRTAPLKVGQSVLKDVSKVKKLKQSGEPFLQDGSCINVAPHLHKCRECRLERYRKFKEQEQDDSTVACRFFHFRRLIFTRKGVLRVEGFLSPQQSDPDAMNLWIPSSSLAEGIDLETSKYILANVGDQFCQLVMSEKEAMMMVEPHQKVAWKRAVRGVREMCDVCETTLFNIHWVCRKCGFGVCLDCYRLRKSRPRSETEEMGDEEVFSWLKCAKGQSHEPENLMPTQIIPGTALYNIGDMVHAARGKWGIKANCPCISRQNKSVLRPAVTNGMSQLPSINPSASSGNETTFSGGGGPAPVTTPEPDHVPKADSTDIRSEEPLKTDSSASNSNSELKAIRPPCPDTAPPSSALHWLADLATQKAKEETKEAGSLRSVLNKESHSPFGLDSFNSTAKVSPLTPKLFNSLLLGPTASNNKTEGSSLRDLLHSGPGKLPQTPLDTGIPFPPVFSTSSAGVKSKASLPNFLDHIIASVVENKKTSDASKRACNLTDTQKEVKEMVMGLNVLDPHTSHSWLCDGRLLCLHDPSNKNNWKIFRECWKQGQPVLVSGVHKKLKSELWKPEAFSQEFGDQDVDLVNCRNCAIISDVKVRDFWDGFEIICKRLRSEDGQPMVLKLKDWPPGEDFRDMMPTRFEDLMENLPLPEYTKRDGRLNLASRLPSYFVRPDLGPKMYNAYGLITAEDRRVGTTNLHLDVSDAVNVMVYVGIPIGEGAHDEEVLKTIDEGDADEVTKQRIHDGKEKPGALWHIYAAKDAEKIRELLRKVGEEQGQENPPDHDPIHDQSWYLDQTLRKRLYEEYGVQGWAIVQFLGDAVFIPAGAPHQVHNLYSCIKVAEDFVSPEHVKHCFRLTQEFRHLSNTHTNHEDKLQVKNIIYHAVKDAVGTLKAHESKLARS

[11] = biological target: T6, Lysine-specific demethylase 3B; test: Binding affinity to KDM3B (unknown origin) by differential scanning fluorimetry
[12] = biological target: T7, Lysine-specific demethylase 4D (Homo sapiens, UniProt Q6B0I6); test: Inhibition of KDM4D (unknown origin) by Succinate-Glo assay
T7 sequence (Q6B0I6 whole entry): T3 sequence (whole entry)

[13] = biological target: T1, Bifunctional arginine demethylase and lysyl-hydroxylase JMJD6; test: Binding affinity to JMJD6 (unknown origin) assessed as thermal stability of the protein by measuring change in melting temperature by differential scanning fluorimetry
RNA demethylase ALKBH5 [14] = biological target: T4, RNA demethylase ALKBH5; test: Binding affinity to ALKBH5 (unknown origin) by differential scanning fluorimetry
Target sequence in this assay (Q6P6C2 2-394 limits assumed): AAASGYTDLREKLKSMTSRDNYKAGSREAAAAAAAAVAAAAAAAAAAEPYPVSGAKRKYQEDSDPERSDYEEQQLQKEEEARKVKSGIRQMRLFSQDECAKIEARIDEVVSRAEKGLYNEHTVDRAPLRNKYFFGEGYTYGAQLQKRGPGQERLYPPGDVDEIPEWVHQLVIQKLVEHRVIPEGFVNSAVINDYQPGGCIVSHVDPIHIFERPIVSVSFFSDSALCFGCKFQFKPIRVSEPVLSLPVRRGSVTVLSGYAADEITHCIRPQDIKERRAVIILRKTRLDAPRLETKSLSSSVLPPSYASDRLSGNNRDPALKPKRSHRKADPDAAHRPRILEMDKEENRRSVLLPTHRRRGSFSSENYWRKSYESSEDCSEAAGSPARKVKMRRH

[15] = biological target: T5, Lysine-specific demethylase 5A; test: Binding affinity to KDM5A (unknown origin) by differential scanning fluorimetry

Row | SMILES | IC50 [1] | also measured
1 | CCOC(=O)c1ccnc(-c2ccn(C)n2)c1 | 0.914 µM | –
2 | Cn1ccc(-c2cc(C(N)=O)ccn2)n1 | > 100 µM | –
3 | CCOC(=O)c1ccnc(-c2ccn(C(C)C)n2)c1 | > 100 µM | –
4 | CC(C)OC(=O)c1ccnc(-c2ccn(C)n2)c1 | 1.94 µM | –
5 | Cc1cc(O)nc(NN=Cc2ccccc2O)n1 | – | IC50 [2]: 0.78 µM
6 | CCOC(=O)c1cc(-c2ccn(C)n2)ncc1F | 23.1 µM | –
7 | CCOC(=O)c1ccnc(-c2nn(C)cc2-c2ccc(OC)nc2)c1 | 24.9 µM | –
8 | COC(=O)c1ccnc(-c2ccn(C)n2)c1 | 1.86 µM | –
9 | CCOC(=O)c1ccnc(-c2ccnn2C)c1 | > 100 µM | –
10 | CCOC(=O)c1ccnc(-c2ccn(CC)n2)c1 | 2.43 µM | –
11 | Cn1ccc(-c2cc(-c3cnn[nH]3)ccn2)n1 | 12.9 µM | –
12 | CCOC(=O)c1ccc(-c2ccn(C)n2)nc1 | > 100 µM | –
13 | CCOC(=O)c1cccnc1-c1ccn(C)n1 | > 100 µM | –
14 | Cn1ccc(-c2cc(C(=O)OCC3CCC3)ccn2)n1 | 2.53 µM | –
15 | CCOC(=O)c1cccc(-c2ccn(C)n2)c1 | > 100 µM | –
16 | Cn1ccc(-c2cc(C(=O)OCc3ccccc3)ccn2)n1 | 5.69 µM | –
17 | CCOC(=O)c1ccnc(-c2cc[nH]n2)c1 | 19.9 µM | inhibition [1]: Dose-Dependent Effect; inhibition [3]: 76%

Row | SMILES | IC50 [1] | also measured
18 | CCOC(=O)c1ccnc(-c2nn(C)cc2-c2cc(OC)cc(OC)c2)c1 | > 100 µM | –
19 | Cn1ccc(-c2cc(C(=O)OCC3CC3)ccn2)n1 | 3.8 µM | –
20 | CCOC(=O)c1cc(-c2ccn(C)n2)ncc1C(F)(F)F | > 100 µM | –
21 | Cn1ccc(-c2cc(C(=O)OCC(F)(F)F)ccn2)n1 | 0.681 µM | IC50 [4]: > 100 µM; Activity [5]: inactive; Activity [6]: inactive; Activity [7]: Active; IC50 (RNA demethylase ALKBH5 [8]): > 100 µM; IC50 [9]: > 100 µM; IC50 [10]: > 100 µM; Activity [11]: inactive; IC50 [12]: > 100 µM; ΔTm [13]: 1.94 °C; Activity (RNA demethylase ALKBH5 [14]): inactive; Activity [15]: inactive
22 | Cn1ccc(-c2cc(C(=O)OC3CCCC3)ccn2)n1 | 43.5 µM | –
23 | CCCOC(=O)c1ccnc(-c2ccn(C)n2)c1 | 1.34 µM | –
24 | CCOC(=O)c1ccnc(-c2nn(C)cc2-c2ccccc2)c1 | 15.2 µM | –
25 | CCOC(=O)c1ccnc(-c2nn(C)cc2-c2cccc(C)c2)c1 | 22.9 µM | –
26 | CCOC(=O)c1ccnc(-c2nn(C)cc2-c2cccc(N3CCOCC3)c2)c1 | 20.4 µM | –
27 | Cn1ccc(-c2cc(C(=O)OCCF)ccn2)n1 | 1.45 µM | –
28 | CCOC(=O)c1cc(C)nc(-c2ccn(C)n2)c1 | > 100 µM | –
29 | CC(C)COC(=O)c1ccnc(-c2ccn(C)n2)c1 | 11.8 µM | –
30 | CCOC(=O)c1ccnc(-c2nn(C)cc2-c2cc3ccccc3c3ccccc23)c1 | > 100 µM | –
31 | CCNC(=O)c1ccnc(-c2ccn(C)n2)c1 | > 100 µM | –
32 | CCOC(=O)c1ccnc(-c2nn(C)cc2-c2ccc3occc3c2)c1 | > 100 µM | –
33 | Cn1ccc(-c2cc(C(=O)OCC(F)F)ccn2)n1 | 1.12 µM | –
34 | Cn1ccc(-c2cc(C(=O)O)ccn2)n1 | 1.71 µM | –
